Data published in patent publication US20070219209A1, “Piperazine Derivatives Of Alkyl Oxindoles” (GYÓGYSZERGYÁR RT., priority 2004, published 2007).
Where a name gives a salt, the structure may show the parent alone.

Legend:
5-HT7 receptor = molecular target: T1, 5-HT7 receptor (Homo sapiens, UniProt P34969); experiment: 5-HT7 receptor binding experiment; conditions: human cloned receptors; ligand 3H-LSD 1.0 nM; non-specific clozapine 25 μM
T1 construct: expressed in transfected cells
Description: For the determination of 5-HT7 receptor binding human cloned receptors were used. The α1 receptor binding was determined from isolated frontal cortex preparation of male Wistar rats weighing 120-200 g. The 5-HT uptake measurements were performed on samples from isolated cortex of male rats. The protein contents of membrane preparations were determined by the method of Lowry (1951).
In the course of 5-HT7 and α1 receptor binding studies the ligands were ^3H-lizergic acid diethyl amide (LSD) (1.0 nM) and ^3H-prazosine (0.3 nM). Clozapine (25 μM) and prazosine (1 μM) were used for the measurement of non-specific bindings. The α1 binding studies were performed according to the methods of Reader and Greengrass (Reader, T. A., Briere, R., Grondin, L.: J. Neural Transm. 68, p. 79 (1987); Greengrass, P., Brenner, R.: Eur. J. Pharmacol. 55, p. 323 (1979)). In the serotonin uptake inhibition studies the ligand was tritiated serotonin, the non-specific ligand was fluoxetine (100 μM). On the test results Ki values were calculated.

T1 sequence (P34969 whole entry): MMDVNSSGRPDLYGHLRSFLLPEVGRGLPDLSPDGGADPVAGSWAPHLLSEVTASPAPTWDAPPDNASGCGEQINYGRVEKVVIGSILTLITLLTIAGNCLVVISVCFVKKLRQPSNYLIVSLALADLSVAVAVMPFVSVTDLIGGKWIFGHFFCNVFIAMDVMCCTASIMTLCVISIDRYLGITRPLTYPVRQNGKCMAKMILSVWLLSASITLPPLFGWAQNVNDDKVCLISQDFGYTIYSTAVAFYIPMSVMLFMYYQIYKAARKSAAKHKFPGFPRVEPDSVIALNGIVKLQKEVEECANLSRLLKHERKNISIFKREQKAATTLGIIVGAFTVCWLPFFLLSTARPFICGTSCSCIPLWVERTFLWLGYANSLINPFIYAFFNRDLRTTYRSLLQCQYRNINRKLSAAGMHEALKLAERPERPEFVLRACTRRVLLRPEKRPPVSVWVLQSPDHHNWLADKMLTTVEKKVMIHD

SMILES | melting point | Ki (5-HT7 receptor)
O=C1Nc2ccc(F)cc2C1CCCCN1CCN(c2ccccc2)CC1 (stereo not drawn) | 140 to 144 °C | 
O=C1Nc2ccc(F)cc2C1CCCCN1CCN(c2ccc(Cl)cc2)CC1 (stereo not drawn) (as salt: hydrochloride) [Example 7, 3-{4-[4-(4-Chlorophenyl)-piperazin-1-yl]-butyl}-5-fluoro-1,3-dihydro-2H-indol-2-one monohydrochloride] | 193 to 196 °C | 
O=C1Nc2cc(F)ccc2C1CCCCN1CCN(c2ccc(Cl)cc2)CC1 (stereo not drawn) (as salt: hydrochloride) [Example 8, 3-{4-[4-(4-Chlorophenyl)-piperazin-1-yl]-butyl}-6-fluoro-1,3-dihydro-2H-indol-2-one monohydrochloride] | 149 to 151 °C | 
Cc1ccc2c(c1)C(CCCCN1CCN(c3ccc(Cl)cc3)CC1)C(=O)N2 (stereo not drawn) [Example 10, 3-{4-[4-(4-Chlorophenyl)-piperazin-1-yl]-butyl}-5-methyl-1,3-dihydro-2H-indol-2-one] | 159 to 161 °C | < 100 µM
O=C1Nc2ccccc2C1CCCCN1CCN(c2ccc(F)cc2)CC1 (stereo not drawn) [Example 11, 3-{4-[4-(4-Fluorophenyl)-piperazin-1-yl]-butyl}-1,3-dihydro-2H-indol-2-one] | 113 to 115 °C | < 100 µM
O=C1Nc2ccccc2C1CCCCN1CCN(c2ccc(F)c(Cl)c2)CC1 (stereo not drawn) [Example 14, 3-{4-[4-(3-Chloro-4-fluorophenyl)-piperazin-1-yl]-butyl}-1,3-dihydro-2H-indol-2-one monohydrochloride] |  | < 100 µM
O=C1Nc2ccc(F)cc2C1CCCCN1CCN(c2ccc(F)cc2)CC1 (stereo not drawn) [Example 16, 5-Fluoro-3-{4-[4-(4-fluorophenyl)-piperazin-1-yl]-butyl}-1,3-dihydro-2H-indol-2-one] | 135 to 137 °C | < 100 µM
O=C1Nc2ccccc2C1CCCCN1CCN(c2cccc(Cl)c2)CC1 (stereo not drawn) [Example 18, 3-{4-[4-(3-Chlorophenyl)-piperazin-1-yl]-butyl}-1,3-dihydro-2H-indol-2-one] | 112 to 114 °C | < 100 µM
O=C1Nc2ccccc2C1CCCCN1CCN(c2ccccc2)CC1 (stereo not drawn) [Example 24, 3-[4-(4-phenyl-piperazin-1-yl)-butyl]-1,3-dihydro-2H-indol-2-one] | 110 to 113 °C | 

More lines, now with the values ahead:

melting point | Ki (5-HT7 receptor) | SMILES
180 to 184 °C |  | O=C1Nc2ccc(F)cc2C1CCCCN1CCN(c2cccc(Cl)c2)CC1 (stereo not drawn) (as salt: hydrochloride) [Example 6, 3-{4-[4-(3-Chlorophenyl)-piperazin-1-yl]-butyl}-5-fluoro-1,3-dihydro-2H-indol-2-one monohydrochloride]
180 to 183 °C |  | O=C1Nc2ccccc2C1CCCCN1CCN(c2ccc(F)c(Cl)c2)CC1 (stereo not drawn) (as salt: hydrochloride) [Example 14, 3-{4-[4-(3-Chloro-4-fluorophenyl)-piperazin-1-yl]-butyl}-1,3-dihydro-2H-indol-2-one monohydrochloride]
123 to 125 °C |  | O=C1Nc2ccccc2C1CCCCN1CCN(c2ccc(Cl)c(C(F)(F)F)c2)CC1 (stereo not drawn) (as salt: hydrochloride) [Example 15, 3-{4-[4-(4-Chloro-3-trifluoromethylphenyl)-piperazin-1-yl]-butyl}-1,3-dihydro-2H-indol-2-one monohydrochloride]
 | < 100 µM | O=C1Nc2ccc(F)cc2C1CCCCN1CCN(c2cccc(Cl)c2)CC1 (stereo not drawn) [Example 6, 3-{4-[4-(3-Chlorophenyl)-piperazin-1-yl]-butyl}-5-fluoro-1,3-dihydro-2H-indol-2-one monohydrochloride]
 | < 100 µM | O=C1Nc2ccc(F)cc2C1CCCCN1CCN(c2ccc(Cl)cc2)CC1 (stereo not drawn) [Example 7, 3-{4-[4-(4-Chlorophenyl)-piperazin-1-yl]-butyl}-5-fluoro-1,3-dihydro-2H-indol-2-one monohydrochloride]
 | < 100 µM | O=C1Nc2cc(F)ccc2C1CCCCN1CCN(c2ccc(Cl)cc2)CC1 (stereo not drawn) [Example 8, 3-{4-[4-(4-Chlorophenyl)-piperazin-1-yl]-butyl}-6-fluoro-1,3-dihydro-2H-indol-2-one monohydrochloride]
122 to 124 °C | < 100 µM | Cc1ccc2c(c1)C(CCCCN1CCN(c3cccc(Cl)c3)CC1)C(=O)N2 (stereo not drawn) [Example 9, 3-{4-[4-(3-Chlorophenyl)-piperazin-1-yl]-butyl}-5-methyl-1,3-dihydro-2H-indol-2-one]
112 to 114 °C | < 100 µM | O=C1Nc2ccccc2C1CCCCN1CCN(c2ccc(Cl)c(Cl)c2)CC1 (stereo not drawn) [Example 12, 3-{4-[4-(3,4-Dichlorophenyl)-piperazin-1-yl]-butyl}-1,3-dihydro-2H-indol-2-one]
 | < 100 µM | O=C1Nc2ccccc2C1CCCCN1CCN(c2ccc(Cl)c(C(F)(F)F)c2)CC1 (stereo not drawn) [Example 15, 3-{4-[4-(4-Chloro-3-trifluoromethylphenyl)-piperazin-1-yl]-butyl}-1,3-dihydro-2H-indol-2-one monohydrochloride]
136 to 137 °C | < 100 µM | O=C1Nc2ccccc2C1CCCCN1CCN(c2ccc(Cl)cc2)CC1 (stereo not drawn) [Example 17, 3-{4-[4-(4-Chlorophenyl)-piperazin-1-yl]-butyl}-1,3-dihydro-2H-indol-2-one]
118 to 120 °C |  | O=C1Nc2ccc(F)cc2C1CCCCN1CCN(c2ccc(Cl)c(Cl)c2)CC1 (stereo not drawn) [Example 23, 3-{4-[4-(3,4-dichlorophenyl)-piperazine-1-yl]-butyl}-5-fluoro-1,3-dihydro-2H-indol-2-one]
